According to the NIST ThermoML archive (doi:10.1021/je0501078):

Test: molar heat capacity at saturation pressure

O=C1CCCCC1C1(O)CCCCC1 (stereo unspecified) [1'-hydroxy-[1,1'-bicyclohexyl]-2-one]
Conditions	molar heat capacity [J/K/mol]
5.16 K, Crystal	0.533
5.41 K, Crystal	0.6159
5.68 K, Crystal	0.7141
5.97 K, Crystal	0.8182
6.29 K, Crystal	0.9686
6.62 K, Crystal	1.137
6.94 K, Crystal	1.337
7.27 K, Crystal	1.564
7.69 K, Crystal	1.849
8.09 K, Crystal	2.166
8.51 K, Crystal	2.524
8.97 K, Crystal	2.903
9.4 K, Crystal	3.307
9.86 K, Crystal	3.764
10.32 K, Crystal	4.247
10.8 K, Crystal	4.745
11.34 K, Crystal	5.386
11.91 K, Crystal	6.078
12.5 K, Crystal	6.783
13.09 K, Crystal	7.518
13.65 K, Crystal	8.27
14.26 K, Crystal	9.088
14.87 K, Crystal	9.894
15.47 K, Crystal	10.71
16.12 K, Crystal	11.66
16.79 K, Crystal	12.66
17.47 K, Crystal	13.66
18.17 K, Crystal	14.72
18.86 K, Crystal	15.8
19.61 K, Crystal	16.87
20.52 K, Crystal	18.24
21.52 K, Crystal	19.81
22.54 K, Crystal	21.36
23.56 K, Crystal	22.97
24.68 K, Crystal	24.67
25.89 K, Crystal	26.58
27.12 K, Crystal	28.34
28.37 K, Crystal	30.15
29.78 K, Crystal	32.21
31.31 K, Crystal	34.26
32.81 K, Crystal	36.25
34.25 K, Crystal	38.29
35.69 K, Crystal	40.02
37.25 K, Crystal	42.05
38.95 K, Crystal	44.28
40.79 K, Crystal	46.36
42.67 K, Crystal	48.72
44.41 K, Crystal	50.59
46.25 K, Crystal	52.77
48.19 K, Crystal	54.67
50.08 K, Crystal	56.63
51.93 K, Crystal	58.46
53.83 K, Crystal	60.66
55.82 K, Crystal	62.66
57.81 K, Crystal	64.39
59.76 K, Crystal	66.21
61.73 K, Crystal	68.03
63.72 K, Crystal	69.96
65.71 K, Crystal	71.5
67.67 K, Crystal	73.51
69.76 K, Crystal	75.35
72.08 K, Crystal	77.34
74.55 K, Crystal	79.53
76.99 K, Crystal	81.52
79.43 K, Crystal	83.56
81.9 K, Crystal	85.64
84.37 K, Crystal	87.8
86.86 K, Crystal	89.8
89.34 K, Crystal	92.04
91.79 K, Crystal	93.87
94.27 K, Crystal	96.03
96.74 K, Crystal	97.94
99.23 K, Crystal	100.3
99.86 K, Crystal	100.6
101.72 K, Crystal	102.1
101.89 K, Crystal	102.2
103.96 K, Crystal	103.9
104.22 K, Crystal	104.1
106 K, Crystal	105.5
108.09 K, Crystal	107.2
110.22 K, Crystal	108.8
112.32 K, Crystal	110.3
114.47 K, Crystal	112.2
116.67 K, Crystal	113.7
118.84 K, Crystal	115.6
120.97 K, Crystal	117
123.07 K, Crystal	118.7
125.14 K, Crystal	120.4
127.19 K, Crystal	122.1
129.21 K, Crystal	123.6
131.21 K, Crystal	125.2
133.17 K, Crystal	126.7
135.12 K, Crystal	128.2
137.05 K, Crystal	129.6
138.96 K, Crystal	131.3
141 K, Crystal	132.8
143.17 K, Crystal	134.4
145.31 K, Crystal	136.2
147.42 K, Crystal	137.7
149.52 K, Crystal	139.4
149.69 K, Crystal	139.5
151.77 K, Crystal	141.3
153.83 K, Crystal	142.8
155.94 K, Crystal	144.7
158.11 K, Crystal	146.2
160.26 K, Crystal	148.1
162.4 K, Crystal	149.6
164.58 K, Crystal	151.5
166.82 K, Crystal	153.1
169.05 K, Crystal	154.8
171.25 K, Crystal	156.7
173.43 K, Crystal	158.6
175.59 K, Crystal	160.1
177.74 K, Crystal	162
179.87 K, Crystal	163.8
181.98 K, Crystal	165.4
184.22 K, Crystal	167.4
186.58 K, Crystal	169.1
188.92 K, Crystal	171.2
191.24 K, Crystal	172.9
193.62 K, Crystal	174.9
196.06 K, Crystal	176.6
198.49 K, Crystal	179
200.89 K, Crystal	180.8
203.28 K, Crystal	182.7
205.65 K, Crystal	184.8
208.08 K, Crystal	186.7
210.57 K, Crystal	188.6
213.04 K, Crystal	191
215.63 K, Crystal	192.9
218.36 K, Crystal	195.1
220.54 K, Crystal	197.1
223.28 K, Crystal	199.4
226 K, Crystal	201.5
228.71 K, Crystal	203.8
231.37 K, Crystal	206.2
234.03 K, Crystal	209.2
236.67 K, Crystal	210.8
239.45 K, Crystal	214
242.37 K, Crystal	216.3
245.3 K, Crystal	218.9
248.2 K, Crystal	221.7
251.09 K, Crystal	224
253.97 K, Crystal	227.2
256.81 K, Crystal	229.6
259.61 K, Crystal	232.7
262.37 K, Crystal	235.2
265.1 K, Crystal	238.8
267.8 K, Crystal	241.5
270.46 K, Crystal	244.1
273.22 K, Crystal	247.9
274.83 K, Crystal	249.2
276.1 K, Crystal	250.8
277.41 K, Crystal	252.4
278.95 K, Crystal	254.3
279.97 K, Crystal	255.8
281.77 K, Crystal	257.8
282.51 K, Crystal	258.4
284.57 K, Crystal	261.4
285.02 K, Crystal	262
287.35 K, Crystal	264.2
287.51 K, Crystal	264.9
289.97 K, Crystal	267.6
290.11 K, Crystal	268.6
292.4 K, Crystal	271.5
292.83 K, Crystal	271.4
294.18 K, Crystal	273.5
295.66 K, Crystal	275.3
308.34 K, Liquid	351
310.04 K, Liquid	351.5
311.73 K, Liquid	353.4
